Experimental findings from US20060128763A1 (priority 2003, published 2006) are described below.

Usually solubility stands for the concentration that dissolves in the medium under given conditions. A low value points to a poorly soluble substance.

The conditions of series [1]: DSC scan, FIGS. 3 and 4. (In DSC, transitions show as peaks or steps in heat flow.)
Series [2] can be described thus: physchem. The settings on record: water, thermodynamic from solid. Here is the method: The measurement was performed according to the procedure described in the Korean Pharmacopoeia (Korean Ministry of Health and Welfare, General principle of medical supplies, Vol. 1, Clause 29, the 7th revision) which comprises the steps of dissolving each compound in distilled water to saturation, analyzing the saturated solution with liquid chromatography, and measuring the dissolved amount of each compound based on the amount of amlodipine.

For `CC1(C)[C@@H]2CC[C@@]1(CS(=O)(=O)O)C(=O)C2.CCOC(=O)C1=C(COCCN)NC(C)=C(C(=O)OC)C1c1ccccc1Cl` (centres unmarked) [Amorphous amlodipine camsylate, amorphous amlodipine camsylate], the “thermodynamic stability (DSC absorption peak temperature compared with the crystalline form)” value in series [1] was “sufficient thermodynamic stability”.
Take `CCOC(=O)C1=C(COCCN)NC(C)=C(C(=O)OC)C1c1ccccc1Cl` (centres unmarked) [Crystalline amlodipine besylate, amlodipine benzenesulfonate]: the solubility in series [2] came out at 2350 µg/mL.
